By Km is commonly meant the substrate concentration at which the rate is half of its maximum.

Consider 12 molecules from ChEMBL document CHEMBL1133359, “New fluorogenic substrate for the first continuous steroid sulfatase assay” (Bioorg Med Chem Lett, 2000).

Bounds are passed on as bounds.

For data set [1], the target named is T1, Steryl-sulfatase (Homo sapiens) (UniProt P08842).
T1 sequence (whole entry): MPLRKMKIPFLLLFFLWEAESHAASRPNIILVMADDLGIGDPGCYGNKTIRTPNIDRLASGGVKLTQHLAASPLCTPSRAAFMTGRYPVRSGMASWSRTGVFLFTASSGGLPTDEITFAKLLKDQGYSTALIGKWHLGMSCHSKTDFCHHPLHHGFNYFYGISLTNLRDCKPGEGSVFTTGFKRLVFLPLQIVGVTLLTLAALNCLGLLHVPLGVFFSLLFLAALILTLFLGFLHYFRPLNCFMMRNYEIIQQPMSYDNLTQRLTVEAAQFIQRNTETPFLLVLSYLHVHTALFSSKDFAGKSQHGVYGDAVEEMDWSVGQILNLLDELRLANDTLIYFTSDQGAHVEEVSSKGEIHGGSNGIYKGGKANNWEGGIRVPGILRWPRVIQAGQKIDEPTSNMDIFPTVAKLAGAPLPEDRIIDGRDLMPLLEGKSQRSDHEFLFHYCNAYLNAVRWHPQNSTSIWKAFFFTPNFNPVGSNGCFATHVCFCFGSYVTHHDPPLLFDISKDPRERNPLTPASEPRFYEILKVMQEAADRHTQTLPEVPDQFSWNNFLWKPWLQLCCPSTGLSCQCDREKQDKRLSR
Briefly: Inhibitory potency against recombinant human steroid sulfatase relative to compound 3 = 1.

Data set [2] deals with T1, Steryl-sulfatase (Homo sapiens).
For data set [3] the target is unchanged. The data set can be described thus: kcat value was determined.
Compound in data set [4]: O=c1oc2cc(OS(=O)(=O)O)ccc2c2ccccc12
Briefly: (§1) Tested for inhibitory potency against recombinant human steroid sulfatase.

Compound in data set [5]: Cc1cc(=O)oc2cc(OS(N)(=O)=O)ccc12
The data set is described as §1.

Compound in data set [6]: C[C@]12CC[C@@H]3c4ccc(OS(N)(=O)=O)cc4CC[C@H]3[C@@H]1CCC2=O
The description is as §1.

Take `NS(=O)(=O)Oc1ccc2cc(-c3ccccc3)c(=O)oc2c1`: in data set [1], the rIC50 was 48.
`C[C@]12CC[C@@H]3c4ccc(OS(N)(=O)=O)cc4CC[C@H]3[C@@H]1CCC2=O` yielded a rIC50 in data set [2] of 1.
The molecule `O=c1oc2cc(OS(=O)(=O)O)ccc2c2ccccc12` registered a k cat in data set [3] of 0.24 s⁻¹.
Regarding `Cc1c(-c2ccccc2)c(=O)oc2cc(OS(N)(=O)=O)ccc12`, in data set [1], the rIC50 was 11.
The same measure, in the same setting: the figure for `NS(=O)(=O)Oc1ccc2cc(-c3nc4ccccc4s3)c(=O)oc2c1` is above 250; for `NS(=O)(=O)Oc1ccc2c(c1)oc(=O)c1ccccc12` it is 3; for `NS(=O)(=O)Oc1ccc2c(c1)oc(=O)c1c3ccc(O)cc3oc21` it is 3.5.
Regarding `Cc1cc(=O)oc2cc(OS(N)(=O)=O)ccc12`, the rIC50 in data set [1] was 30.
As to `NS(=O)(=O)Oc1ccc2c(c1)oc(=O)c1c3ccccc3oc21`, in data set [1], the rIC50 was determined as 5.
As for `Cc1c(-c2ccccc2)c(=O)oc2ccc(OS(N)(=O)=O)cc12`, the rIC50 in data set [1] was above 250.
Still for that read-out and setting: next, `NS(=O)(=O)Oc1ccc2c(c1)oc1c3ccccc3oc(=O)c21`: above 160.

B1: Steryl-sulfatase (Homo sapiens), P08842 (protein)
chain: MPLRKMKIPFLLLFFLWEAESHAASRPNIILVMADDLGIGDPGCYGNKTIRTPNIDRLASGGVKLTQHLAASPLCTPSRAAFMTGRYPVRSGMASWSRTGVFLFTASSGGLPTDEITFAKLLKDQGYSTALIGKWHLGMSCHSKTDFCHHPLHHGFNYFYGISLTNLRDCKPGEGSVFTTGFKRLVFLPLQIVGVTLLTLAALNCLGLLHVPLGVFFSLLFLAALILTLFLGFLHYFRPLNCFMMRNYEIIQQPMSYDNLTQRLTVEAAQFIQRNTETPFLLVLSYLHVHTALFSSKDFAGKSQHGVYGDAVEEMDWSVGQILNLLDELRLANDTLIYFTSDQGAHVEEVSSKGEIHGGSNGIYKGGKANNWEGGIRVPGILRWPRVIQAGQKIDEPTSNMDIFPTVAKLAGAPLPEDRIIDGRDLMPLLEGKSQRSDHEFLFHYCNAYLNAVRWHPQNSTSIWKAFFFTPNFNPVGSNGCFATHVCFCFGSYVTHHDPPLLFDISKDPRERNPLTPASEPRFYEILKVMQEAADRHTQTLPEVPDQFSWNNFLWKPWLQLCCPSTGLSCQCDREKQDKRLSR
With B1, the results for the Michaelis constant (Km) in data set [4], in data set [5] and in data set [6] were 22.5 µM, 275 µM and 95 µM, respectively.
